Values quoted from earlier work in PMC4008333 (Cancer chemotherapy and pharmacology, 2012).
Starred links: 1 amine or outer side, 2 acyl side, 3 side chain; linkers in the order of their positions; H or OH if unused. Positions of bridges follow the written chain, without caps; N, C: chain ends. Non-standard residues stand in square brackets, D forms with d. Residues, ends and D or L forms follow the SMILES beside them. Chains are numbered I, II in the order given. Actinocin(9to1) = Cc1c2oc3c(C)ccc(C(=O)[*:1])c3nc-2c(C(=O)[*:2])c(N)c1=O; NMeV = CN[C@H](C(=O)O)C(C)C; Sar = CNCC(=O)O

Conditions: historical model; point estimate (% RSE)

Cc1c2oc3c(C)ccc(C(=O)N[C@@H]4C(=O)N[C@H](C(C)C)C(=O)N5CCC[C@H]5C(=O)N(C)CC(=O)N(C)[C@@H](C(C)C)C(=O)O[C@@H]4C)c3nc-2c(C(=O)N[C@@H]2C(=O)N[C@H](C(C)C)C(=O)N3CCC[C@H]3C(=O)N(C)CC(=O)N(C)[C@@H](C(C)C)C(=O)O[C@@H]2C)c(N)c1=O [AMD, actinomycin-D] (I: T[dV]P[Sar][NMeV] / II: T[dV]P[Sar][NMeV]; ester I:1-I:C, II:1-II:C; linker I:N-II:N via Actinocin(9to1))
Q2: 11.4 (58.8) L/h/70 kg
Q3: 25.2 (23.3) L/h/70 kg
V1: 3.56 (39.3) L/70 kg
V2: 16.1 (80.7) L/70 kg
V3: 367 (19.7) L/70 kg
